Measured values from ChEMBL document CHEMBL1201862, “PubChem BioAssay data set” (2004).
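The compound was tested at five concentrations on cells cultured in 96-well plates, with a 48-hour exposure period. The concentration for 50% growth inhibition is given as GI50.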 Calls of active or inactive are those of the source. No stated cut-off is given here; in the data, active = GI50 up to about 1.1 µM and inactive = higher.

What was measured:
Experiment in all cases: NCI tumour cell line growth inhibition, 48 h
[1] = tested on: EKVX
[2] = tested on: HCT-116
[3] = tested on: HT-29
[4] = tested on: MDA-MB-231
[5] = tested on: MDA-MB-435
[6] = tested on: NCI-H23
[7] = tested on: OVCAR-8
[8] = tested on: PC-3
[9] = tested on: RPMI-8226
[10] = tested on: SF-295
[11] = tested on: SK-MEL-28
[12] = tested on: SK-MEL-2
[13] = tested on: SK-MEL-5
[14] = tested on: SNB-19
[15] = tested on: SW-620
[16] = tested on: U-251
[17] = tested on: UACC-257
[18] = tested on: MOLT-4
[19] = tested on: T47D

Measured: GI50

Cc1cc(Cl)ccc1OCC(=O)Oc1c(Cl)c(Cl)c(Cl)c(Cl)c1Cl
inactive: [1] 18.6 µM | [2] 20.8 µM | [3] 26.7 µM | [4] 18 µM | [5] 24.2 µM | [6] 26.4 µM | [7] 26 µM | [8] 28.2 µM | [9] 21.9 µM | [10] 24.1 µM | [11] 27.7 µM | [12] 24.2 µM | [13] 22.9 µM | [14] 26.4 µM | [15] 32.3 µM | [16] 24.4 µM | [17] 19.6 µM

N#CCc1nc(O)c2ccccc2n1
inactive: [1] > 100 µM | [2] > 100 µM | [3] > 100 µM | [4] > 100 µM | [5] > 100 µM | [18] 39.7 µM | [6] > 100 µM | [7] > 100 µM | [8] > 100 µM | [10] > 100 µM | [11] > 100 µM | [12] > 100 µM | [13] > 100 µM | [14] > 100 µM | [15] > 100 µM | [19] 50.6 µM | [16] > 100 µM | [17] > 100 µM

c1ccc(CSC2(SCc3ccccc3)CCCCC2)cc1
inactive: [1] > 10 µM | [2] > 10 µM | [3] > 10 µM | [4] > 10 µM | [18] > 10 µM | [6] > 10 µM | [7] > 10 µM | [8] > 10 µM | [9] > 10 µM | [10] > 10 µM | [11] > 10 µM | [12] > 10 µM | [13] > 10 µM | [14] > 10 µM | [15] > 10 µM | [19] > 10 µM | [16] > 10 µM | [17] > 10 µM

CN/N=C(\C)C(CN1CCCCC1)C(C1=C(O)c2ccccc2OC1)c1ccccc1 (stereo not drawn)
inactive: [1] > 100 µM | [2] > 100 µM | [3] > 100 µM | [18] 39.4 µM | [6] > 100 µM | [7] > 100 µM | [9] 44.3 µM | [10] 82 µM | [11] > 100 µM | [12] > 100 µM | [13] > 100 µM | [14] > 100 µM | [15] > 100 µM | [16] 91.2 µM | [17] > 100 µM

CCC1(c2ccc(OC)c(OC)c2)CCN(S(=O)(=O)c2ccc(C)cc2)C1 (stereo not drawn)
inactive: [1] > 100 µM | [2] 57.4 µM | [3] > 100 µM | [4] > 100 µM | [5] 82.6 µM | [18] 19.2 µM | [6] > 100 µM | [8] > 100 µM | [10] > 100 µM | [11] > 10 µM | [12] > 100 µM | [13] 33.7 µM | [14] > 100 µM | [15] > 100 µM | [19] > 100 µM | [16] > 100 µM | [17] > 100 µM

CN(C(=O)C12C3(C(=O)O)C4C5(C(=O)O)C3C1(C(=O)O)C5C42C(=O)O)C(C)(C)C (stereo not drawn)
inactive: [1] > 100 µM | [2] > 100 µM | [3] > 100 µM | [4] > 100 µM | [5] > 100 µM | [18] > 100 µM | [6] > 100 µM | [7] > 100 µM | [8] > 100 µM | [10] > 100 µM | [11] > 100 µM | [12] > 100 µM | [13] > 100 µM | [14] > 100 µM | [15] > 100 µM | [19] > 100 µM | [16] > 100 µM | [17] > 100 µM

O=C1CCCCCCCCCCC1CCCCCBr (stereo not drawn)
inactive: [1] 41.7 µM | [2] 17 µM | [3] 25.9 µM | [4] 20.3 µM | [5] 40.8 µM | [18] 17.1 µM | [6] 24.4 µM | [7] 31.8 µM | [8] 31.2 µM | [10] 34.4 µM | [11] 19.9 µM | [12] 16.9 µM | [13] 15.3 µM | [14] 25.8 µM | [15] 42.5 µM | [19] 24.2 µM | [16] 20 µM | [17] 21.3 µM

COc1ccccc1C1c2cc3c(cc2OC(N2CCOCC2)C1C)OCO3 (stereo not drawn)
inactive: [1] 20.6 µM | [2] 12.4 µM | [3] 16.9 µM | [5] 8.04 µM | [18] 17.1 µM | [6] 19.8 µM | [7] 28.3 µM | [8] 21.5 µM | [9] 16.2 µM | [10] 13.5 µM | [11] 15.6 µM | [12] 17.7 µM | [13] 15.4 µM | [14] 14 µM | [15] 17.7 µM | [19] 13.2 µM | [17] 15.8 µM
